Source: PubChem BioAssay (NCI)
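Test compounds were applied to cells in 96-well plates for 48 hours at 5 doses. The concentration for 50% growth inhibition is given as GI50. TGI is the concentration that stops growth completely.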

Experiments:
Experiment in all cases: DTP human tumour cell line panel, 48 h
786-0 renal = system: 786-0 renal
A498 renal = system: A498 renal
A549 NSCLC = system: A549 NSCLC
ACHN renal = system: ACHN renal
BT-549 breast = system: BT-549 breast
CAKI-1 renal = system: CAKI-1 renal
CCRF-CEM leukemia = system: CCRF-CEM leukemia
COLO 205 colon = system: COLO 205 colon
DU-145 prostate = system: DU-145 prostate
EKVX NSCLC = system: EKVX NSCLC
HCC-2998 colon = system: HCC-2998 colon
HCT-116 colon = system: HCT-116 colon
HCT-15 colon = system: HCT-15 colon
HL-60(TB) leukemia = system: HL-60(TB) leukemia
HOP-62 NSCLC = system: HOP-62 NSCLC
HOP-92 NSCLC = system: HOP-92 NSCLC
HS 578T breast = system: HS 578T breast
HT29 colon = system: HT29 colon
IGROV1 ovarian = system: IGROV1 ovarian
K-562 leukemia = system: K-562 leukemia
KM12 colon = system: KM12 colon
LOX IMVI melanoma = system: LOX IMVI melanoma
M14 melanoma = system: M14 melanoma
MALME-3M melanoma = system: MALME-3M melanoma
MCF7 breast = system: MCF7 breast
MDA-MB-231 breast = system: MDA-MB-231 breast
MDA-MB-435 = system: MDA-MB-435
MOLT-4 leukemia = system: MOLT-4 leukemia
NCI-H226 lung = system: NCI-H226 lung
NCI-H23 lung = system: NCI-H23 lung
NCI-H460 lung = system: NCI-H460 lung
NCI-H522 lung = system: NCI-H522 lung
NCI/ADR-RES ovarian = system: NCI/ADR-RES ovarian
OVCAR-3 ovarian = system: OVCAR-3 ovarian
OVCAR-4 ovarian = system: OVCAR-4 ovarian
OVCAR-5 ovarian = system: OVCAR-5 ovarian
OVCAR-8 ovarian = system: OVCAR-8 ovarian
PC-3 prostate = system: PC-3 prostate
RPMI-8226 leukemia = system: RPMI-8226 leukemia
RXF 393 renal = system: RXF 393 renal
SF-268 CNS = system: SF-268 CNS
SF-295 CNS = system: SF-295 CNS
SF-539 CNS = system: SF-539 CNS
SK-MEL-2 melanoma = system: SK-MEL-2 melanoma
SK-MEL-28 melanoma = system: SK-MEL-28 melanoma
SK-MEL-5 melanoma = system: SK-MEL-5 melanoma
SK-OV-3 ovarian = system: SK-OV-3 ovarian
SN12C renal = system: SN12C renal
SNB-19 CNS = system: SNB-19 CNS
SNB-75 CNS = system: SNB-75 CNS
SR leukemia = system: SR leukemia
SW-620 colon = system: SW-620 colon
T-47D breast = system: T-47D breast
TK-10 renal = system: TK-10 renal
U251 CNS = system: U251 CNS
UACC-257 melanoma = system: UACC-257 melanoma
UACC-62 melanoma = system: UACC-62 melanoma
UO-31 renal = system: UO-31 renal

CC(=O)OC[C@]1(C)C=C2C(=O)[C@](C)(O)C3(CC3)C(C)=C2[C@H]1O
GI50 (786-0 renal): 41.1 nM
TGI (786-0 renal): 350 nM
GI50 (A498 renal): 148 nM
TGI (A498 renal): 366 nM
GI50 (A549 NSCLC): 172 nM
TGI (A549 NSCLC): 2800 nM
GI50 (ACHN renal): 22.1 nM
TGI (ACHN renal): 50.1 nM
GI50 (BT-549 breast): 148 nM
TGI (BT-549 breast): 556 nM
GI50 (CAKI-1 renal): 41 nM
TGI (CAKI-1 renal): 2580 nM
GI50 (CCRF-CEM leukemia): 206 nM
TGI (CCRF-CEM leukemia): > 100000 nM
GI50 (COLO 205 colon): 110 nM
TGI (COLO 205 colon): 308 nM
GI50 (DU-145 prostate): 36 nM
GI50 (EKVX NSCLC): 252 nM
TGI (EKVX NSCLC): 1200 nM
GI50 (HCC-2998 colon): 98.5 nM
TGI (HCC-2998 colon): 353 nM
GI50 (HCT-116 colon): 32.1 nM
TGI (HCT-116 colon): > 100000 nM
GI50 (HCT-15 colon): 30.6 nM
TGI (HCT-15 colon): 31800 nM
GI50 (HL-60(TB) leukemia): 86.1 nM
TGI (HL-60(TB) leukemia): 852 nM
GI50 (HOP-62 NSCLC): 239 nM
TGI (HOP-62 NSCLC): 1230 nM
GI50 (HOP-92 NSCLC): 148 nM
TGI (HOP-92 NSCLC): 623 nM
GI50 (HS 578T breast): 296 nM
TGI (HS 578T breast): 1090 nM
GI50 (HT29 colon): 33.9 nM
TGI (HT29 colon): > 100000 nM
GI50 (IGROV1 ovarian): 45.7 nM
TGI (IGROV1 ovarian): 364 nM
GI50 (K-562 leukemia): 131 nM
TGI (K-562 leukemia): > 100000 nM
GI50 (KM12 colon): 191 nM
TGI (KM12 colon): > 34700 nM
GI50 (LOX IMVI melanoma): 87.5 nM
TGI (LOX IMVI melanoma): 650 nM
GI50 (M14 melanoma): 89.9 nM
GI50 (MALME-3M melanoma): 124 nM
TGI (MALME-3M melanoma): 302 nM
GI50 (MCF7 breast): 27.3 nM
TGI (MCF7 breast): 15500 nM
GI50 (MDA-MB-231 breast): 152 nM
TGI (MDA-MB-231 breast): 806 nM
GI50 (MDA-MB-435): 136 nM
TGI (MDA-MB-435): 587 nM
GI50 (MOLT-4 leukemia): 62.9 nM
TGI (MOLT-4 leukemia): > 100000 nM
GI50 (NCI-H226 lung): 217 nM
TGI (NCI-H226 lung): 634 nM
GI50 (NCI-H23 lung): 63.3 nM
TGI (NCI-H23 lung): 367 nM
GI50 (NCI-H460 lung): 28.2 nM
TGI (NCI-H460 lung): 84.4 nM
GI50 (NCI-H522 lung): 79.8 nM
TGI (NCI-H522 lung): 390 nM
GI50 (NCI/ADR-RES ovarian): 77.2 nM
TGI (NCI/ADR-RES ovarian): 804 nM
GI50 (OVCAR-3 ovarian): 42.4 nM
TGI (OVCAR-3 ovarian): 417 nM
GI50 (OVCAR-4 ovarian): 94 nM
TGI (OVCAR-4 ovarian): 649 nM
GI50 (OVCAR-5 ovarian): 66.6 nM
TGI (OVCAR-5 ovarian): 506 nM
GI50 (OVCAR-8 ovarian): 177 nM
TGI (OVCAR-8 ovarian): 4510 nM
GI50 (PC-3 prostate): 135 nM
TGI (PC-3 prostate): 1290 nM
GI50 (RPMI-8226 leukemia): 13900 nM
TGI (RPMI-8226 leukemia): > 81500 nM
GI50 (RXF 393 renal): 61.2 nM
TGI (RXF 393 renal): 199 nM
GI50 (SF-268 CNS): 38.4 nM
TGI (SF-268 CNS): 499 nM
GI50 (SF-295 CNS): 131 nM
TGI (SF-295 CNS): 1560 nM
GI50 (SF-539 CNS): 166 nM
TGI (SF-539 CNS): 388 nM
GI50 (SK-MEL-2 melanoma): 127 nM
TGI (SK-MEL-2 melanoma): 345 nM
GI50 (SK-MEL-28 melanoma): 215 nM
TGI (SK-MEL-28 melanoma): 575 nM
GI50 (SK-MEL-5 melanoma): 137 nM
TGI (SK-MEL-5 melanoma): 300 nM
GI50 (SK-OV-3 ovarian): 194 nM
TGI (SK-OV-3 ovarian): 1110 nM
GI50 (SN12C renal): 251 nM
TGI (SN12C renal): 6210 nM
GI50 (SNB-19 CNS): 193 nM
TGI (SNB-19 CNS): 1280 nM
GI50 (SNB-75 CNS): 152 nM
TGI (SNB-75 CNS): 350 nM
GI50 (SR leukemia): 66.7 nM
TGI (SR leukemia): > 100000 nM
GI50 (SW-620 colon): 44 nM
TGI (SW-620 colon): > 50000 nM
GI50 (T-47D breast): 207 nM
TGI (T-47D breast): 3650 nM
GI50 (TK-10 renal): 233 nM
TGI (TK-10 renal): 2990 nM
GI50 (U251 CNS): 68 nM
TGI (U251 CNS): 6160 nM
GI50 (UACC-257 melanoma): 280 nM
TGI (UACC-257 melanoma): 1120 nM
GI50 (UACC-62 melanoma): 89.4 nM
TGI (UACC-62 melanoma): 302 nM
GI50 (UO-31 renal): 114 nM
TGI (UO-31 renal): 273 nM
